# In patent US11472805B2, “Tricyclic compounds and their use as phosphodiesterase inhibitors” (Pfizer Inc., priority 2015, dated 2022):
# Like-named read-outs stand apart in the source and are kept apart here.
# Tests used:
# Type in all cases: biochemical
# human PDE4D3 = human PDE4D3 (Homo sapiens (Human), UniProt Q08499); test: PDE4D3 Scintillation Proximity Assay (SPA), inhibition of enzyme activity; settings: read-out: Human PDE4D FL
# Method in brief: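 His-tagged human PDE4D3 (aa 50–672), expressed in insect cells, hydrolysed 1 μM cAMP (3H tracer plus cold) for 30 min at 25° C in 50 mM Tris pH 7.5, 1.3 mM MgCl2 and 0.01% Brij. Enzyme level was set for ~20% conversion. Product was read by yttrium silicate SPA beads after 8 h settling.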
# Human PDE4B1 = Human PDE4B1 (Homo sapiens (Human), UniProt Q07343, S133E/S654A/S659A/S661A); test: PDE4B1 Scintillation Proximity Assay (SPA), inhibition of enzyme activity; settings: read-out: Human PDE4B FL
# Method in brief: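 His-tagged enzyme from baculovirus-infected insect cells, Ni-NTA purified. SPA with 1 μM cAMP (20 nM 3H-cAMP tracer) in 50 mM Tris pH 7.5, 1.3 mM MgCl2, 0.01% Brij, […] PDE4B enzyme for ~20% substrate conversion; 30 min at 25 °C, stopped with yttrium silicate beads, read after 8 h settling.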
# Human PDE4C1 = Human PDE4C1 (Homo sapiens (Human), UniProt Q08493); test: PDE4C1 Scintillation Proximity Assay (SPA), inhibition of enzyme activity; settings: read-out: Human PDE4C FL
# Method in brief: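 Recombinant insect-cell-expressed human PDE4C1 […] in 50 mM Tris pH 7.5, 1.3 mM MgCl2, 0.01% Brij with 1 μM cAMP (3H-cAMP tracer), ~20% substrate conversion, inhibitor concentration range. Incubated 30 min at 25° C; stopped with yttrium silicate SPA beads, read by scintillation after 8 h settling.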
# Human PDE4A3 = Human PDE4A3 (Homo sapiens (Human), UniProt P27815); test: PDE4A3 Scintillation Proximity Assay (SPA), inhibition of enzyme activity; settings: read-out: Human PDE4A FL
# Method in brief: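 Recombinant human PDE4A3 expressed in insect cells, purified via Ni-NTA, anti-FLAG and size exclusion. SPA run 30 min at 25 °C in 50 mM Tris pH 7.5, 1.3 mM MgCl2, 0.01% Brij with 1 μM cAMP (20 nM 3H-cAMP), […], ~20% substrate conversion; stopped with yttrium silicate beads.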
# [1] = Table 10, geometric mean of 2-9 determinations unless otherwise indicated
# [2] = Table 9, geometric mean of 2-9 determinations unless otherwise indicated
# Human PDE4C1, sequence (Q08493 2-712): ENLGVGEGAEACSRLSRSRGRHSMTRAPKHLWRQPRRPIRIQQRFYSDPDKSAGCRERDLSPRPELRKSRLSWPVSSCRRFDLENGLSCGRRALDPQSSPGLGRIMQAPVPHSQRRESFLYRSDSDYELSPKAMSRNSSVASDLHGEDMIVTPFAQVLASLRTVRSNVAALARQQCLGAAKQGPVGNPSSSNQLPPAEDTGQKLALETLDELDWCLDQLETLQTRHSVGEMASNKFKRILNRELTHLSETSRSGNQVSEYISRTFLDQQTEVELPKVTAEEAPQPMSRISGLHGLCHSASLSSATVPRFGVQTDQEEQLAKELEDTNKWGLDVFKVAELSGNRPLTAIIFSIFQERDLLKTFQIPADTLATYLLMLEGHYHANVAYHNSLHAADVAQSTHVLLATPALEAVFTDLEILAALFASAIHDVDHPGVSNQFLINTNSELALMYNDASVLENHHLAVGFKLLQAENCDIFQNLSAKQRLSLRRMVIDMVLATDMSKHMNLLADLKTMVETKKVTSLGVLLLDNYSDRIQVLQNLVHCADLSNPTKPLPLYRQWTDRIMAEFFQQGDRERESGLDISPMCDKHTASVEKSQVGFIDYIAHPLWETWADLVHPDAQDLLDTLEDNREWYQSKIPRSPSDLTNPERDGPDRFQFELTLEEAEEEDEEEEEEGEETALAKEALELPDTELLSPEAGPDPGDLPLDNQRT
# Human PDE4A3, sequence (P27815 other isoform, or with tags, fused parts or gaps): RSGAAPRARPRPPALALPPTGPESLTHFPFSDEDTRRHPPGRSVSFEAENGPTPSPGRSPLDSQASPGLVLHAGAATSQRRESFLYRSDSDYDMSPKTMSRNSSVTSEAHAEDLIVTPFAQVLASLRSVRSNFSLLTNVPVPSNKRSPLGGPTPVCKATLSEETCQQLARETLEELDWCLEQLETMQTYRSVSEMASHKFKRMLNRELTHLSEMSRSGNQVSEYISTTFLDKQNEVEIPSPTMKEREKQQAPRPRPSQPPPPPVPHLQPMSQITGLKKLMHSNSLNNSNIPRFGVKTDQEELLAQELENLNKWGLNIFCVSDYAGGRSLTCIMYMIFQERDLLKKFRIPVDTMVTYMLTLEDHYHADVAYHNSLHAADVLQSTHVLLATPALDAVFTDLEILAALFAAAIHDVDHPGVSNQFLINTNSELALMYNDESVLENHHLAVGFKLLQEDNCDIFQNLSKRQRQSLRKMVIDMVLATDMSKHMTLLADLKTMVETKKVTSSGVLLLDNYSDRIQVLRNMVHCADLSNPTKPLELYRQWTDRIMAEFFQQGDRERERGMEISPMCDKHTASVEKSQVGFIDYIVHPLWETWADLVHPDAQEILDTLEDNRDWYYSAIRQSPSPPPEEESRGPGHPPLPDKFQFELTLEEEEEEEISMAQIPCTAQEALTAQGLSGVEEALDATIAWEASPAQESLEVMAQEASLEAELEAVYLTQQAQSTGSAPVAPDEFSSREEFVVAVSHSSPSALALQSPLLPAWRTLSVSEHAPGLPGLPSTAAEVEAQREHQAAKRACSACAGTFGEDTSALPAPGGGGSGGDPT
# Human PDE4B1, sequence (Q07343 122-736 S133E/S654A/S659A/S661A): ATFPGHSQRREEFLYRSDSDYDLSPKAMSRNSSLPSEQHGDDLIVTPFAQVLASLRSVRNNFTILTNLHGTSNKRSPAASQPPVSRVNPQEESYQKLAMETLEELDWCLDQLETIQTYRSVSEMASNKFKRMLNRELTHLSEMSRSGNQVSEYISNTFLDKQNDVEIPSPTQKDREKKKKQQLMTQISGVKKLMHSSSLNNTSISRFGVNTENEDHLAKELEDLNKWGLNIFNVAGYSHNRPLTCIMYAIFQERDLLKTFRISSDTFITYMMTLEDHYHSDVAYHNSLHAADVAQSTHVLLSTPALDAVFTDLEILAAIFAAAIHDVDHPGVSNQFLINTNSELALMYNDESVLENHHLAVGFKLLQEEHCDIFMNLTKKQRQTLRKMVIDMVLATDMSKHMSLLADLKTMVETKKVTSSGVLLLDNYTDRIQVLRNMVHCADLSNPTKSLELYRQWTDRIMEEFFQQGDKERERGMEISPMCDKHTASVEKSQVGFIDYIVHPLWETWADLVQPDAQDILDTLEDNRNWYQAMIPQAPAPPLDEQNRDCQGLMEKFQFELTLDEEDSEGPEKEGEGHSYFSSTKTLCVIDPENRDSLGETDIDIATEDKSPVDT
# human PDE4D3, sequence (Q08499 186-808): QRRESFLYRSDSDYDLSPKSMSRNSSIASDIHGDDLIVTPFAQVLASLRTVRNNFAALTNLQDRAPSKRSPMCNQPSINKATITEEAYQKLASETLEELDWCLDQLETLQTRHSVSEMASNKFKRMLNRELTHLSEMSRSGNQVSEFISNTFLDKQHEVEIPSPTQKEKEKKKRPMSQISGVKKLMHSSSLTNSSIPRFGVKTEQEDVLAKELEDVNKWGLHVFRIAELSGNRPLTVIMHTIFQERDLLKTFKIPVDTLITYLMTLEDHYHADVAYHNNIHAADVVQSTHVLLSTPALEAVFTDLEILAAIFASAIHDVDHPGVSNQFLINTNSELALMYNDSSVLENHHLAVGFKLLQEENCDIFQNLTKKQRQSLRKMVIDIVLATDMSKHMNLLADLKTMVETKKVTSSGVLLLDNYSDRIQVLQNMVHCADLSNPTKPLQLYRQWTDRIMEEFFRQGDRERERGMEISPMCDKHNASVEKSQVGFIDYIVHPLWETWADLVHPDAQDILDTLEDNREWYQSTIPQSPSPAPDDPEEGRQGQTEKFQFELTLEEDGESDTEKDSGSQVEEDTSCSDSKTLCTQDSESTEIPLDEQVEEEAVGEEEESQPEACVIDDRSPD
IC50 (human PDE4D3; [1]),IC50 (Human PDE4B1; [1]),IC50 (Human PDE4C1; [1]),IC50 (Human PDE4A3; [1]),IC50 (human PDE4D3; [2]),IC50 (Human PDE4B1; [2]),IC50 (Human PDE4C1; [2]),IC50 (Human PDE4A3; [2]),SMILES
137 nM,98.4 nM,52.8 nM,87.5 nM,–,–,–,–,"COCCCCCCN1CCn2c(c(-c3ccc(Cl)cc3)c3ncccc32)C1=O [Example 96, 10-(4-Chlorophenyl)-8-(6-methoxyhexyl)-7,8-dihydropyrido[2′,3′:4,5]pyrrolo[1,2-a]pyrazin-9(6H)-one]"
–,–,–,–,85.7 nM,2.14 nM,21 nM,3.92 nM,"Cc1cc(C#N)c(F)cc1-c1c2n(c3scnc13)CCN(C1CC1)C2=O [Example 28, 4-(7-Cyclopropyl-8-oxo-5,6,7,8-tetrahydro[1,3]thiazolo[4′,5′:4,5]pyrrolo[1,2-a]pyrazin-9-yl)-2-fluoro-5-methylbenzonitrile]"
–,–,–,–,38.3 nM,3.81 nM,10.8 nM,3.49 nM,"Cc1cc(N2CCn3c(c(-c4ccc(Cl)cc4)c4ncccc43)C2=O)no1 [Example 57, 10-(4-Chlorophenyl)-8-(5-methyl-1,2-oxazol-3-yl)-7,8-dihydropyrido[2′,3′:4,5]pyrrolo[1,2-a]pyrazin-9(6H)-one]"
–,–,–,–,182 nM,2.7 nM,6.59 nM,1.86 nM,"Cc1ccc(-c2c3ncccc3n3ccn(C4CC4)c(=O)c23)cc1 [Example 13, 8-Cyclopropyl-10-(4-methylphenyl)pyrido[2′,3′:4,5]pyrrolo[1,2-a]pyrazin-9(8H)-one]"
